Reference: US9179674B2, “Macrocyclic picolinamide compounds with fungicidal activity” (DOW AGROSCIENCES LLC, priority 2013, dated 2015)
Read-outs that look alike come from different tables or passages of the source.

Tests used:
Puccinia triticina = experiment: Wheat Brown Rust fungicidal activity (PUCCRT); type: in vivo; settings: rate 100 ppm; for pest or weed control at 100 ppm: Puccinia triticina
Method: Technical grades of materials were dissolved in acetone, which were then mixed with nine volumes of water containing 110 ppm Triton X-100. The fungicide solutions were applied onto wheat seedlings using an automated booth sprayer to run-off. All sprayed plants were allowed to air dry prior to further handling. All fungicides were evaluated using the aforementioned method for their activity vs. all target diseases. Wheat leaf blotch and brown rust activity were also evaluated using track spray applications, in which case the fungicides were formulated as EC formulations, containing 0.1% Trycol 5941 in the spray solutions. Wheat plants (variety Yuma) were grown from seed in a greenhouse in 50% mineral soil/50% soil-less Metro mix until the first leaf was fully emerged, with 7-10 seedlings per pot. These plants were inoculated with an aqueous spore suspension of Septoria tritici either prior to or after fungicide treatments. After inoculation the plants were kept in 100% relative humidity (one day in a dark dew chamber followed by two to three days in a lighted dew chamber at 20° C.) to permit spores to germinate and infect the leaf. The plants were then transferred to a greenhouse set at 20° C. for disease to develop. When disease symptoms were fully expressed on the 1st leaves of untreated plants, infection levels were assessed on a scale of 0 to 100 percent disease severity. Percent disease control was calculated using the ratio of disease severity on treated plants relative to untreated plants. Evaluation of Fungicidal Activity: Wheat Brown Rust (Puccinia triticina; Synonym: Puccinia recondite f sp. tritici; Bayer code PUCCRT) Wheat plants (variety Yuma) were grown from seed in a greenhouse in 50% mineral soil/50% soil-less Metro mix until the first leaf was fully emerged, with 7-10 seedlings per pot. These plants were inoculated with an aqueous spore suspension of Puccinia triticina either prior to or after fungicide treatments. After inoculation the plants were kept in a dark dew room at 22° C. with 100% relative humidity overnight to permit spores to germinate and infect the leaf. The plants were then transferred to a greenhouse set at 24° C. for disease to develop. Fungicide formulation, application and disease assessment followed the procedures as described in the Example A.

[1] = tested on: Mycosphaerella graminicola; Anamorph: Septoria tritici; experiment: Leaf Blotch of Wheat fungicidal activity (SEPTTR); type: in vivo; settings: rate 100 ppm; for pest or weed control at 100 ppm: Zymoseptoria tritici
Method: Evaluation of Fungicidal Activity: Leaf Blotch of Wheat (Mycosphaerella graminicola; Anamorph: Septoria tritici; Bayer code […]) Technical grades of materials were dissolved in acetone, which were then mixed with nine volumes of water containing 110 ppm Triton X-100. The fungicide solutions were applied onto wheat seedlings using an automated booth sprayer to run-off. All sprayed plants were allowed to air dry prior to further handling. All fungicides were evaluated using the aforementioned method for their activity vs. all target diseases. Wheat leaf blotch and brown rust activity were also evaluated using track spray applications, in which case the fungicides were formulated as EC formulations, containing 0.1% Trycol 5941 in the spray solutions. Wheat plants (variety Yuma) were grown from seed in a greenhouse in 50% mineral soil/50% soil-less Metro mix until the first leaf was fully emerged, with 7-10 seedlings per pot. These plants were inoculated with an aqueous spore suspension of Septoria tritici either prior to or after fungicide treatments. After inoculation the plants were kept in 100% relative humidity (one day in a dark dew chamber followed by two to three days in a lighted dew chamber at 20° C.) to permit spores to germinate and infect the leaf. The plants were then transferred to a greenhouse set at 20° C. for disease to develop. When disease symptoms were fully expressed on the 1st leaves of untreated plants, infection levels were assessed on a scale of 0 to 100 percent disease severity. Percent disease control was calculated using the ratio of disease severity on treated plants relative to untreated plants.

[2] = 24 h, 1 Day Protectant, read-out: Disease control PUCCRT 1DP
[3] = 72 h, 3 Day Curative, read-out: Disease control PUCCRT 3DC
[4] = 24 h, 1 Day Protectant, read-out: Disease control SEPTTR 1DP
[5] = 72 h, 3 Day Curative, read-out: Disease control SEPTTR 3DC

Row | Structure (SMILES) | pest or weed control at 100 ppm (Puccinia triticina; [2]) | pest or weed control at 100 ppm (Puccinia triticina; [3]) | pest or weed control at 100 ppm [1, 4] | pest or weed control at 100 ppm [1, 5] | Disease control PUCCRT 1DP (Puccinia triticina; 1 Day Protectant) | Disease control SEPTTR 1DP ([1]; 1 Day Protectant) | Disease control SEPTTR 3DC ([1]; 3 Day Curative)
1 | CCCO[C@@H]1[C@@H](Cc2ccc(C(F)(F)F)cc2)COC[C@H](NC(=O)c2nccc(OC)c2O)C(=O)O[C@H]1C [Compound F29] | 80 to 100% | 0 to 80% | 80 to 100% | 80 to 100% | – | – | –
2 | COc1ccnc(C(=O)N[C@H]2COC[C@H](Cc3ccc(C(F)(F)F)cc3)[C@@H](OCC(C)C)[C@H](C)OC2=O)c1O [Compound F30] | – | – | – | – | A (80-100) | A (80-100) | B (More than 0-Less than 80)
3 | CCCCCO[C@@H]1[C@@H](Cc2ccc(C(F)(F)F)cc2)COC[C@H](NC(=O)c2nccc(OC)c2O)C(=O)O[C@H]1C [Compound F31] | 0 to 80% | – | 80 to 100% | 0 to 80% | – | – | –
4 | COc1ccnc(C(=O)N[C@H]2COC[C@H](CC(F)(F)F)[C@@H](OCC(C)C)[C@H](C)OC2=O)c1O [Compound F32] | 80 to 100% | 0 to 80% | 80 to 100% | 0 to 80% | – | – | –
5 | COc1ccnc(C(=O)N[C@H]2COC[C@H](CC(F)(F)F)[C@@H](OC3CCCC3)[C@H](C)OC2=O)c1O [Compound F33] | 0 to 80% | – | 80 to 100% | 0 to 80% | – | – | –
6 | COc1ccnc(C(=O)N[C@H]2COC[C@H](CCC(C)C)[C@@H](OCC(C)C)[C@H](C)OC2=O)c1O [Compound F34] | 80 to 100% | 80 to 100% | 80 to 100% | 80 to 100% | – | – | –
7 | COc1ccnc(C(=O)N[C@H]2COC[C@H](CCC(C)C)[C@@H](OCCCC(F)(F)F)[C@H](C)OC2=O)c1O [Compound F35] | 80 to 100% | – | 80 to 100% | 0 to 80% | – | – | –
8 | COc1ccnc(C(=O)N[C@H]2COC[C@H](CCC(C)C)[C@@H](OC(=O)C3CC3)[C@H](C)OC2=O)c1O [Compound F36] | 80 to 100% | 0 to 80% | 80 to 100% | 80 to 100% | – | – | –
9 | COc1ccnc(C(=O)N[C@H]2COC[C@H](CCC(C)C)[C@@H](Oc3ccc(C)cc3)[C@H](C)OC2=O)c1O [Compound F37] | 80 to 100% | 0 to 80% | 80 to 100% | 80 to 100% | – | – | –
10 | CCCO[C@@H]1[C@@H](CCC(C)C)COC[C@H](NC(=O)c2nccc(OC)c2O)C(=O)O[C@H]1C [Compound F38] | 80 to 100% | 80 to 100% | 80 to 100% | 80 to 100% | – | – | –
11 | COc1ccnc(C(=O)N[C@H]2COC[C@H](CCC(C)C)[C@@H](OC3CCCC3)[C@H](C)OC2=O)c1O [Compound F39] | 80 to 100% | 80 to 100% | 80 to 100% | 80 to 100% | – | – | –
12 | COc1ccnc(C(=O)N[C@H]2COC[C@H](Cc3cc(F)c(F)c(F)c3)[C@@H](OCC(C)C)[C@H](C)OC2=O)c1O [Compound F40] | 0 to 80% | – | 80 to 100% | 80 to 100% | – | – | –
13 | COc1ccnc(C(=O)N[C@H]2COC[C@H](Cc3ccc(C)cc3)[C@@H](OCC(C)C)[C@H](C)OC2=O)c1O [Compound F48, 3-hydroxy-N-((3S,7S,8R,9S)-8-isobutoxy-9-methyl-7-(4-methylbenzyl)-2-oxo-1,5-dioxonan-3-yl)-4-methoxypicolinamide] | 80 to 100% | 80 to 100% | 80 to 100% | 0 to 80% | – | – | –
